{
  "source": "patent US11472807B2",
  "about": "“Purine derivatives for use as medicament and for use in treating neurodegenerative or neuro-inflammatory disorders” (COMMISSARIAT À L'ENERGIE ATOMIQUE ET AUX ENERGIES …, priority 2017, dated 2022)",
  "key": {"[1]": {"test_system": "extracellular Aβ (Aβ1-38, Aβ1-40, Aβ1-42)", "test": "Extracellular Aβ production in organotypic hippocampal slice cultures (MSD sandwich immunoassay)", "format": "cell-based, mice", "protocol": "Organotypic hippocampal slice cultures (OHSC) were prepared from newborn (P0-P3) C57B16 or for transgenic 3×Tg-AD mice and were cultured according the interface method (Gogolla et al., 2006). OHSC were kept for 7 days in vitro (div) at 37° C. in a humidified atmosphere (5% CO2) before treatment. Medium was changed every other day.\nFor acute exposure, neurons were exposed to various concentration of Aftin-5 for 18 hours for acute exposure. […]\nAll Aβ peptides assays in the samples were performed using V-PLEX Aβ Peptide Panel 1 (4G8) Kit (MSD Technologies_K15199E-1). All plates were read on the SECTOR Imager 2 400 (MSD Technologies). The Aβ peptides assay is based on the principle of the sandwich immunoassay. All assays have followed strictly the protocol kit and all reagents were from Meso Scale Discovery. Briefly, a 96-well plate having 4 spots pre-coated with the corresponding antibodies is provided by MSD Technology (4-spot MULTI-SPOT plates). Before adding the samples, a first saturation step is required. Once the plate is satured and washed, 25 μL of sample (or calibrators) per well are loaded, then 25 μL of the Detection Antibody solution (MSD SULFO-TAG). The plate is incubated for 2 hours. At the end of the incubation, the plate is washed and then a chemical solution (Read buffer 2×) is added allowing electrochemiluminescence. After a short incubation (5 min) at room temperature, the plate is read on the SECTOR Imager 2400. The instrument measures the intensity of the light electrochemiluminescence."}, "IL-10": {"test_system": "IL-10", "test": "IL-10 mRNA in OHSC (RT-qPCR)", "format": "cell-based, mice", "settings": "50 μM, 10 days", "protocol": "(§1) FIG. 10. Plots illustrating the effect of Aftin-5 on relative mRNA expression levels of interleukin-1-beta (IL-1β; (A)), interleukin-6 (IL-6; (B)), TNF-alpha (TNFα; (C)) and interleukin-10 (IL-10; (D)) in organotypic hippocampal slice cultures (OHSC). OHSC culture media of cortical neurons were replaced by incubation medium containing Aftin-5 (50 μM; A50) or vehicle (0.1% DMSO; Veh). 10 days later, total mRNA in lysate was isolated and purified, cDNAs were then synthesized from […] of total mRNA. cDNAs were amplified by quantitative RT-PCR and the relative expression of specific genes was normalized to the housekeeping gene HPRT1 (2^−ΔCt). Mann-Whitney tests were performed and ***p<0.001 indicates significant differences between Aftin-5 and control conditions. Data expressed as means+/−SEM from q=3 independent experiments with n=4-6 inserts/condition and 10 slices/insert. […]\n(§2) The impact of Aftin-5 on gene expression of different biomarkers was determined by measuring mRNA levels of selected BDNF, CREB, PS95, INS Receptor/IGF-1 receptor, IL-1β, IL-6 in OHSC treated chronically with Aftin-5 or in a total brain from mice exposed to Aftin-5 at either 8 or 30 mg/Kg. […] Threshold cycles (Ct) of target gene and cyclophilin A (Ppia−control housekeeping gene) were recorded and gene expression was calculated as 2^−ΔΔCt(ΔΔCt=ΔCttreated−ΔCtcontrol, ΔCt=Cttarget−CtPpia). […]"}, "[2]": {"test_system": "IGF-1R (insulin growth factor receptor 1)", "test": "IGF-1R mRNA in OHSC (RT-qPCR)", "format": "cell-based, mice", "settings": "50 μM for 10 days, P=0.0845", "protocol": "as §1, with “12.” for “10.”, “murine insulin-like growth factor-1 receptor (IGF1-R; (A))” for “interleukin-1-beta (IL-1β; (A)), interleukin-6 (IL-6; (B)), TNF-alpha (TNFα; (C))”, “murine insulin receptor (Insr; (B))” for “interleukin-10 (IL-10; (D))”, “OHSC” for “cortical neurons”, “(2^−ΔCt)” for “(2^−ΔCt).”, “*p<0.05” for “***p<0.001”\nas §2"}, "IL-6 cytokine": {"test_system": "IL-6 cytokine", "test": "Secreted IL-6 in LPS-treated human primary glial cells (MSD ELISA)", "format": "cell-based", "settings": "LPS 6 h, then purine derivative 10 μM for 18 h", "protocol": "For assessing the cytokine production, human primary glial cells were grown until confluent on coated collagen 12-well plates. Cells were serum-starved in glial serum-free medium for 2 h and treated with LPS for 6 h before treatment with purine derivatives (10 μM) for an additional 18 h. Supernatants were harvested and secreted IL-6 cytokine was measured by ELISA by the mean of the Meso Scale Discovery (MSD) technology. Briefly, a 96-well plate having 1 spot pre-coated with the corresponding antibody is provided by MSD Technology. Before adding the samples, a first saturation step is required. Once the plate is saturated and washed, 25 μL of sample (or calibrators) per well are loaded and incubated for 1 hour. Then the plate is washed and incubated with 25 μL of the Detection Antibody solution (MSD SULFO-TAG) for 1 hour. At the end of the incubation, the plate is washed and then a chemical solution (Read buffer 1×) is added allowing electrochemiluminescence. After a short incubation (5 min) at room temperature, the plate is read on the QUICK Plex SQ120. The instrument measures the intensity of the light electrochemiluminescence."}, "[3]": {"settings": "chronic treatment of OHSC (10 days)"}},
  "data": [
    {"smiles": "CC[C@H](CO)Nc1nc(N(C)c2ccccc2)c2ncn(C(C)C)c2n1", "note": "[Aftin-5]", "values": [
      {"measurement": "modulation of Aβ1-42/Aβ1-40 ratio induced by Aftin-5 in presence of γ-secretase inhibitor BMS", "setting": "[1]; OHSC, Aftin-5 50 μM with BMS (10 μM), 10 days", "result": "no changes"},
      {"measurement": "Aβ1-38", "setting": "[1]; [3]", "result": "decrease"},
      {"measurement": "Aβ1-40", "setting": "[1]; [3]", "result": "remained unchanged"},
      {"measurement": "concentration ratio Aβ1-42/Aβ1-40", "setting": "[1]; [3]", "result": "slight but significant increase"},
      {"measurement": "production of Aβ1-42", "setting": "[1]; chronic treatment of OHSC (10 days), P<0.0001", "result": "increase"},
      {"measurement": "IL-10 mRNA synthesis", "setting": "IL-10", "result": "no changes"},
      {"measurement": "IGF-1R mRNA", "setting": "[2]", "result": "tend to increase"},
      {"measurement": "Anti-inflammatory Compounds (secreted IL-6)", "setting": "IL-6 cytokine", "result": "+(>1 μM) (“+” means that the tested compound shows an anti-inflammatory and/or attenuation of Tau's phosphorylation property with a concentration higher than 1 μM)"}
    ]}
  ]
}
